Measurements from patent publication US10702525B1, “Pyrimidine derivatives as anti-diabetic agents” (UNITED ARAB EMIRATES UNIVERSITY, priority 2019, dated 2020).
Blank lines part the entries; values can stand above or below the compound they belong to.

Columns and labels:
[1] = system: Streptozotocin-injected (STZ) diabetic rats; experiment: Fasting blood glucose level of STZ diabetic rats; format: in vivo, rat; conditions: for reduction in blood glucose level compared to control diabetic groups: 6 and 8 hours after treatment, n=6
Description: These symptoms indicate the development of diabetes characterized by chronic and persistently elevated plasma glucose level. STZ induces diabetes by selectively destroying the insulin producing pancreatic endocrine cells. Decreased body weight in STZ-induced diabetic rats is believed to be caused by dehydration, and by breakdown and catabolism of fats and proteins. Increased catabolic reactions upon administering STZ result in muscle wasting, and subsequently, body weight loss.
Compounds 81c, 81f, 82c, and 82d, synthesized as described in Examples 1, 2, 5, and 6 were orally administrated to the treated groups of diabetic rats at a dose of 1.0 μM/kg. Fasting glucose levels in treated and control rat blood were followed over 8.0 hours. […] Compounds 82c and 82d were also tested in vivo (FIGS. 1C, 1D). […] In FIGS. 1A-1D the results are means±SEM, where n=6 rats; *P<0.05, **P<0.01, and ***P<0.001 vs. the STZ diabetic control group.

[2] = system: βTC6 cells; experiment: Insulin secretion from βTC6 cell line (insulin Sandwich ELISA); format: cell-based, murine; conditions: for glucose-stimulated insulin release compared to basal controls (summary statement) / insulin secretion compared to the basal control / insulin secretion compared to basal insulin secretion and to insulin secretion in the presence of glucose: βTC6 cells; for insulin secretion compared to the basal control: absence of glucose; for insulin secretion compared to the basal control / insulin secretion compared to basal insulin secretion and to insulin secretion in the presence of glucose: 10^−15 M, 10^−12 M and 10^−9 M; for insulin secretion compared to basal insulin secretion and to insulin secretion in the presence of glucose: presence of 2.8 mM glucose
Description: Secretion of insulin by βTC6 cells was measured using the high range insulin Sandwich ELISA kit.

[3] = system: βTC6 cells; experiment: Glucose uptake assay (2-NBDG) in βTC6 cells; format: cell-based, murine; conditions: 10 μM sample, 450 μM 2-NBDG, ten minutes
Description: The glucose uptake assay was performed with a cell-based assay kit by incubating 450 μM 2-[N-(7-nitrobenz-2-oxa-1,3-diaxol-4-yl)amino]-2-deoxyglucose (2-NBDG, a fluorescently labelled deoxyglucose analog) and a 10 μM sample of the reference drug or the test compound with βTC6 cells for ten minutes and subsequently measuring the fluorescence at excitation and emission wavelengths of 485 nm and 535 nm, respectively, with a TECAN infinite M200 micro plate reader.

[4] = oral, 1.0 μM/kg, STZ diabetic rats

Structure (SMILES): Clc1cc(N2CCOCC2)ncn1 [Compound 82d, 4-(6′-Chloropyrimidin-4′-yl)morpholine]
fasting blood glucose levels in diabetic rat models (summary statement) [1]: decrease fasting blood glucose levels | effect on blood glucose levels (not statistically significant) ([1]; oral, 1.0 μM/kg, followed over 8.0 hours, STZ diabetic rats): reduced blood glucose levels | glucose-stimulated insulin release compared to basal controls (summary statement) [2]: increase glucose-stimulated insulin release

melting point: 136 °C
Structure (SMILES): CN(CCO)c1ccnc(Cl)n1 [Compound 81c, 2-[(2′-Chloropyrimidin-4′-yl)-methylamino]ethanol]
glucose uptake compared to the standard reference exenatide [3]: remarkable potential to flush glucose into the βTC6 cells | fasting blood glucose levels in diabetic rat models (summary statement) [1]: decrease fasting blood glucose levels | anti-diabetic potency ranking ([1]; in vivo and in vitro results taken together): most potent anti-diabetic compound | reduction in blood glucose level compared to control diabetic groups [1, 4]: significant reduction in blood glucose level | potency in reducing the blood glucose level ([1]; oral, 1.0 μM/kg, at 8 hours, STZ diabetic rats): high potency in reducing the blood glucose level | insulin secretion compared to the basal control [2]: significantly stimulated insulin secretions | insulin secretion compared to basal insulin secretion and to insulin secretion in the presence of glucose [2]: stimulated insulin secretion significantly | insulin secretion effect relative to exenatide ([2]; βTC6 cell line): comparable effects to exenatide | glucose-stimulated insulin release compared to basal controls (summary statement) [2]: increase glucose-stimulated insulin release

melting point: 116 to 117 °C
Structure (SMILES): OCCNc1ccnc(Cl)n1 [Compound 81f, 2-[(2′-Chloropyrimidin-4′-yl)amino]ethanol]
glucose uptake compared to the standard reference exenatide [3]: remarkable potential to flush glucose into the βTC6 cells | fasting blood glucose levels in diabetic rat models (summary statement) [1]: decrease fasting blood glucose levels | reduction in blood glucose level compared to control diabetic groups [1, 4]: significant reduction in blood glucose level | insulin secretion compared to the basal control [2]: significantly stimulated insulin secretions | insulin secretion compared to basal insulin secretion and to insulin secretion in the presence of glucose [2]: stimulated insulin secretion significantly | glucose-stimulated insulin release compared to basal controls (summary statement) [2]: increase glucose-stimulated insulin release

Structure (SMILES): CN(CCO)c1cc(Cl)ncn1 [Compound 82c, 2-[(6′-Chloropyrimidin-4′-yl)(methylamino)]ethanol]
glucose uptake compared to the standard reference exenatide [3]: remarkable potential to flush glucose into the βTC6 cells | fasting blood glucose levels in diabetic rat models (summary statement) [1]: decrease fasting blood glucose levels | reduction in blood glucose level compared to control diabetic groups [1, 4]: statistically significant reduction in blood glucose level | insulin secretion compared to the basal control [2]: significantly stimulated insulin secretions | insulin secretion compared to basal insulin secretion and to insulin secretion in the presence of glucose [2]: stimulated insulin secretion significantly | glucose-stimulated insulin release compared to basal controls (summary statement) [2]: increase glucose-stimulated insulin release
